Settings: for log10 BCF: fish

SMILES	melting point [°C]	boiling point [°C]	also measured
C[C@]12CC[C@H]3[C@@H](CCC4=CC(=O)CC[C@@H]43)[C@@H]1CC[C@@H]2O	118	–	–
CCCCCCCCOC(=O)CCCC	-42.3	262	–
CC(O)CNC1CCCCC1 (stereo not drawn)	–	–	log10 vapour pressure (mmHg): -1.8
c1ccc2c(c1)-c1ccc3ccc4cccc5cc-2c1c3c45	164	536	log10 Henry constant (atm·m³/mol): -6.46; log10 Koc (L/kg): 6.2; log10 biodegradation half-life (days): 2.52
CCOC(=O)CC	-73.9	99.1	log10 Koa: 3.15; log10 vapour pressure (mmHg): 1.55
CC(C)c1ccc(C=O)cc1	–	236	ready biodegradability: readily biodegradable
CC(C)(C)C1CCCCC1O (stereo not drawn)	45	–	–
Cc1ccccc1C(=O)O	104	259	log10 vapour pressure (mmHg): -3.18; ready biodegradability: readily biodegradable
c1ccc2oc(-c3ccc(-c4nc5ccccc5o4)s3)nc2c1	219	–	–
Cc1cccc2c1Cc1ccccc1-2	85	–	log10 vapour pressure (mmHg): -3.52
CCN(CC)CCOCCO	–	222	–
CC(Cl)c1ccccc1 (stereo not drawn)	–	–	log10 vapour pressure (mmHg): -0.187
CC(=O)NS(=O)(=O)c1ccc(NC(=O)c2ccccc2C(=O)O)cc1	196	–	–
CCCCC(=O)OCC	-91.2	146	log10 Koc (L/kg): 1.97; log10 vapour pressure (mmHg): 0.681
Cc1cccc(NC(=O)c2ccccc2C(=O)O)c1	150	–	–
CC(=O)OCC(=O)O	67.5	–	–
CC1(C)C(C=C(Cl)Cl)C1C(=O)OC(C#N)c1cccc(Oc2ccccc2)c1 (stereo not drawn)	81.3	–	log10 Koc (L/kg): 5; log10 BCF: 2.53
C(=Cc1ccncc1)c1ccccc1	–	–	ready biodegradability: readily biodegradable
N#C[C@H](O[C@@H]1O[C@H](CO[C@@H]2O[C@H](CO)[C@@H](O)[C@H](O)[C@H]2O)[C@@H](O)[C@H](O)[C@H]1O)c1ccccc1	224	–	–
CCCCCCCC(C)C	-74.6	167	log10 vapour pressure (mmHg): 0.276
CCCCCC(O)CCCCC	25	228	–
CCCCCCCCCCCCC(=O)OC	6.5	–	log10 vapour pressure (mmHg): -2.89
O=C1CCCC1C1CCCC1 (stereo not drawn)	-13	232	–
CCC(C(=O)NC(=O)NC(C)=O)c1ccccc1 (stereo not drawn)	100	–	–
FC(F)(F)C(Cl)CCl (stereo not drawn)	–	76.9	–
CC(C)CCC#N	-51	156	–

SMILES	melting point [°C]	boiling point [°C]	also measured
CCc1cccc(C(C)=O)c1	-20	–	log10 vapour pressure (mmHg): 0.357
CN(C)P(=O)(N(C)C)N(C)C	7.2	232	log10 vapour pressure (mmHg): -1.34; ready biodegradability: not readily biodegradable; log10 BCF: -0.3
O=C(O)CSCC(=O)O	129	–	–
CCc1ccccc1	-94.9	136	log10 Henry constant (atm·m³/mol): -2.1; log10 Koa: 3.74; log10 Koc (L/kg): 2.23; log10 biodegradation half-life (days): 0.903; log10 vapour pressure (mmHg): 0.982
CCCCCC1=CCCC1	-83	179	–
CC(C)OC(=O)C(=O)OC(C)C	–	191	–
OCCCc1ccccc1	–	235	log10 Henry constant (atm·m³/mol): -6.69; log10 vapour pressure (mmHg): -1.7
Cc1ccccc1NC(=O)c1ccccc1	146	–	–
c1ccc2c(c1)nnn2C1CCCCC1	104	–	–
COC(=O)CSc1cc(/N=c2\sc(=O)n3n2CCCC3)c(F)cc1Cl	106	–	log10 vapour pressure (mmHg): -8.48
CC1OC(C)OC(C)O1 (stereo not drawn)	12.6	124	log10 vapour pressure (mmHg): 1.04; ready biodegradability: not readily biodegradable; log10 BCF: 0.48
C#CCC=C	–	42.5	–
O=CC1CC=CCC1 (stereo not drawn)	2	105	–
COc1cc(NS(C)(=O)=O)ccc1Nc1c2ccccc2nc2ccccc12	235	–	–
C[C@H]1CCC(=O)N1	43	248	–
CCc1cc(C)c(C)cc1C	-13.5	213	–
O=C1C=CC(=O)c2c(O)ccc(O)c21	232	–	–
Cc1ccc(C)c(C(=O)O)c1	132	–	–
OC1CCCCCCC1	25.1	–	–
CCOC(=O)c1ccc(OC)c(OC)c1	43.5	296	–
OCC(c1ccccc1)c1ccccc1	64.5	–	–
CCCNC	–	62	–
O=Cc1ccc2ccccc2n1	71	–	–
CCOC(=O)C(Cl)(Cl)C(C)=O	–	206	–
CC(C)CC(=O)C=Cc1ccccc1	43	–	–
